From patent US20250367323A1, “PLATFORM FOR RADIOLYTIC NEUROMODULATION” (THE UAB RESEARCH FOUNDATION, priority 2024, published 2025)
Where two headings read alike, the source gives them in different places.

Tests used:
[1] = system: isolated Drosophila brains
[2] = target: T1, mouse TRPA1 (mTRPA1) (Mus musculus, UniProt Q8BLA8); assay: Intracellular Ca2+ imaging (Fluo-4) in HEK293 cells expressing mTRPA1; format: cell-based; conditions: H2O2 10 μM, BITC 100 μM added at end of experiment
T1 construct: expressed in transfected cells; host or cells: HEK293
T1 sequence (Q8BLA8 whole entry): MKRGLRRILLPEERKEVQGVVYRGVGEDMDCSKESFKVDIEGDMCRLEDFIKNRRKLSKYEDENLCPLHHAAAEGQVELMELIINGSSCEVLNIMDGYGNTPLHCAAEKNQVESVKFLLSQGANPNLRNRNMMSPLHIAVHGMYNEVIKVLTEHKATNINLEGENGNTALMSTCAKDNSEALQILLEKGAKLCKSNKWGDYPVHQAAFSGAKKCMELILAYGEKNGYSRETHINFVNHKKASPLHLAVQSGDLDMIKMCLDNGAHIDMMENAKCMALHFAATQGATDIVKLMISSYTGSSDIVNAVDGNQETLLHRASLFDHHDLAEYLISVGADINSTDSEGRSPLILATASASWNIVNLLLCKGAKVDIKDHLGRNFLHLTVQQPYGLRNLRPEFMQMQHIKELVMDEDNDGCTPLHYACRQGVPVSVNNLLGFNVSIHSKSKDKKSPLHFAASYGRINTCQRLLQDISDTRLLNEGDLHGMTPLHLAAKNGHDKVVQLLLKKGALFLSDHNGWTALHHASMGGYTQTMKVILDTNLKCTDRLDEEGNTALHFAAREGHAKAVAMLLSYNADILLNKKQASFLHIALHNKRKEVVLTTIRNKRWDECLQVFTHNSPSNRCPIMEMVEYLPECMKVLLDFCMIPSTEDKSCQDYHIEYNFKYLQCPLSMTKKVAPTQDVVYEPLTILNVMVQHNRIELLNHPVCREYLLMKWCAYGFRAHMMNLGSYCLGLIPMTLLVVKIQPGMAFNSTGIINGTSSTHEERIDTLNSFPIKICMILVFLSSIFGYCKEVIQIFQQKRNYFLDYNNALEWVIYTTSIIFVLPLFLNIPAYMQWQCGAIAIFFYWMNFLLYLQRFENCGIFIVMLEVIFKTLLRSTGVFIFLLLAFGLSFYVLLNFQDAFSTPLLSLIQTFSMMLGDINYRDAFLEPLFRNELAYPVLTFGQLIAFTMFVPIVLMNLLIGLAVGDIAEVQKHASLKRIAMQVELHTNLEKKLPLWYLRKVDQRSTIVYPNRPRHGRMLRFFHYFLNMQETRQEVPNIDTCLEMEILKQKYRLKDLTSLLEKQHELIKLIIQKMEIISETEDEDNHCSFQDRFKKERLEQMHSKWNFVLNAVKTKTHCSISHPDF
Description: (§1) (FIG. 1A) Cells expressing either dTRPA1, mTRPA1, or mCherry were Xray irradiated (0.5 nGy/cm^2/sec) for 60 sec while monitoring changes in intracellular Ca^2+. BITC (100 μM) was added at the end of the experiments to confirm TRPA1 expression. […] (FIG. 1B) As in (FIG. 1A), except cells were stimulated with H2O2 (10 μM) administration. […] One-way ANOVA with Tukey's multiple comparisons test.
(§2) The Xrs source (FIG. 3A) was mounted to a Zeiss 710 LSM confocal imaging system. Changes in intracellular Ca^2+ were detected using a Fluo-4 Direct™ calcium assay kit. Fluo-4 epifluorescence changes were computed as (Fi-Fo; ΔF)/Fo, where Fi, is the fluorescence intensity at any frame and F0, is the resting fluorescence. F0 was calculated as the averaged fluorescence of the first 3 frames before stimulation.

[3] = system: HEK293 cells expressing mCherry; assay: Intracellular Ca2+ imaging (Fluo-4) in HEK293 cells expressing mCherry control; format: cell-based, human; conditions: HEK293 cells expressing mCherry only; H2O2 10 μM; BITC 100 μM added at end of experiment
Description: as §1, §2

[4] = target: T2, dTRPA1(A)10b (Drosophila melanogaster, UniProt Q7Z020); format: cell-based; conditions: for change in intracellular Ca2+ on agonist administration: HEK293 cells expressing dTRPA1(A)10b, H2O2 10 μM, BITC 100 μM added at end of experiment
T2 construct: expressed in transfected cells; host or cells: HEK293
T2 sequence (Q7Z020 with tags, fused parts or gaps isoform Q7Z020-5): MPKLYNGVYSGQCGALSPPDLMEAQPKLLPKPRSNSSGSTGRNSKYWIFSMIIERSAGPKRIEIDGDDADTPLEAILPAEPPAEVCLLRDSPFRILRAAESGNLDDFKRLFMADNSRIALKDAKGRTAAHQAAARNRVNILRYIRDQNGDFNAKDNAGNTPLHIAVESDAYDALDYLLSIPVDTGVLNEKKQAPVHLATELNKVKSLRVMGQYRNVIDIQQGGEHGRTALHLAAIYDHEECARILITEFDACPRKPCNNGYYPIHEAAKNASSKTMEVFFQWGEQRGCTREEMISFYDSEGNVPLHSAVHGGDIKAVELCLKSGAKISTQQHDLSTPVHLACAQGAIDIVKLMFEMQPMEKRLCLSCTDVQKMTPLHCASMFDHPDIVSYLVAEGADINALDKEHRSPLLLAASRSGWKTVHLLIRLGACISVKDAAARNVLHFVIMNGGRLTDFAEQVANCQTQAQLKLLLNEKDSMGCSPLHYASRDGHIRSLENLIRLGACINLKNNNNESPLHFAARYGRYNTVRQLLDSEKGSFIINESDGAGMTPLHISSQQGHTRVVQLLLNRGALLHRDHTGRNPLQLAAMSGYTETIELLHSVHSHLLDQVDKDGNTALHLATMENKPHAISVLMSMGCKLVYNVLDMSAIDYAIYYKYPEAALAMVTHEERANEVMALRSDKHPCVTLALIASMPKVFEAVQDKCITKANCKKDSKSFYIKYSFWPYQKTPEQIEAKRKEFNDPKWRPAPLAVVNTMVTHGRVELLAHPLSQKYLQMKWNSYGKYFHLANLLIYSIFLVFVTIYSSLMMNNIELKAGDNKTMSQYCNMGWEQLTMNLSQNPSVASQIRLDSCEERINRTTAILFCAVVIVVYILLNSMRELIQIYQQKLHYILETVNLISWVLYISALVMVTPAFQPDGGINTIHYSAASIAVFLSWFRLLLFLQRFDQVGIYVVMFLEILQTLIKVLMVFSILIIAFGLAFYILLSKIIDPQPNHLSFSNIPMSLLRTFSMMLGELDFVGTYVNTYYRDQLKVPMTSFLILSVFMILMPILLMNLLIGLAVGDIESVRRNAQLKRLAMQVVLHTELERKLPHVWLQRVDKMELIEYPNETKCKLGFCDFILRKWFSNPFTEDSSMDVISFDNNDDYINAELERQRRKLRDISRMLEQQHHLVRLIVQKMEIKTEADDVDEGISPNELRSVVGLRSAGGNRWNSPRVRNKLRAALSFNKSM
Description: as §1, §2

[5] = system: Drosophila; conditions: flies fed food containing H2O2 (1%) for 5 hours vs vehicle; 1 hour acclimation; p<0.03; n=29-30
[6] = system: isolated Drosophila brains; conditions: brains perfused with 200 μM H2O2; electrode in vs out of brain p<0.0042; n=3

| Compound | change in intracellular Ca2+ on agonist administration [2] | change in intracellular Ca2+ on agonist administration [3] | change in intracellular Ca2+ on agonist administration [4] | other results |
| --- | --- | --- | --- | --- |
| NC1=N[C@H](O)[C@H]2[C@H]3O[C@]4(O)O[C@@H]([C@@H](O)[C@@]2(N1)[C@@H]4O)[C@]3(O)CO [TTX, tetrodotoxin] | – | – | – | effect on Xrs-stimulated DA release (AUC of amperometric current) [1]: robustly inhibits this release |
| CC(C)c1ccc(NC(=O)Cn2cnc3c2c(=O)n(C)c(=O)n3C)cc1 [HC-030031] | – | – | – | effect on Xrs-stimulated DA release (AUC of amperometric current) ([1]; Xrs 0.1 Gy/sec for 250 msec, brains incubated 5 min with 1 μM TTX or 100 μM HC-030031 vs control/vehicle): inhibits Xrs-stimulated DA release |
| S=C=NCc1ccccc1 [BITC, benzyl isothiocyanate] | increases intracellular Ca^2+ | modest increase in Ca^2+ | increases intracellular Ca^2+ | – |
| OO [H2O2, hydrogen peroxide] | not observed | not observed | promotes an acute increase in intracellular Ca^2+ | locomotion (total beam crossings over a 4 hr period) [5]: significantly stimulates locomotion; DA release (peak amperometric current) [6]: stimulates DA release |
| CC1(C)CC(O)CC(C)(C)N1[O] [Tempol] | – | – | – | effect on Xray-induced Ca2+ increases ([4]; Xray irradiation, ROS scavenger present): blocked |
| N[C@@H](Cc1ccc(O)c(I)c1)C(=O)O [3IY, 3-iodotyrosine] | – | – | – | effect on Xrs-stimulated DA release (AUC of amperometric signals) after DA depletion ([1]; 10 mg/mL orally administered to flies for 24 hr vs vehicle, p<0.013, n=13-15): significantly reduces the ability of Xrs to stimulate DA release |
